According to US11571418B2, “Platinum compounds that inhibit constitutive STAT3 signaling and induce cell cycle arrest and apoptosis of malignant cells” (H. LEE MOFFITT CANCER CENTER AND RESEARCH INSTITUTE, INC., priority 2011, dated 2023):

Key:
Format in all cases: cell-based, human
A549 = experiment: TUNEL analysis of apoptosis; conditions: 48 h
Excerpt: (§1) FIGS. 7A-7C. TUNEL analysis of PLATINUM-401-mediated apoptosis. (FIG. 7A) Normal NIH3T3 fibroblasts and their v-Src-transformed counterparts (NIH3T3/v-Src), human breast carcinoma cell lines (MDA-MB-453, MDA-MB-435, MDA-MB-468, and MDA-MB-231), human non-small cell lung cancer cell line (A549), human prostate cancer cell line (DU145), multiple myeloma 5TGM1 (mouse) and U266 (human) cell lines, mouse melanoma cell line (B16) and human pancreatic cancer cell line (Panc1) were all treated with or without PLATINUM-401 for 48 h and analyzed by TUNEL for DNA damage. For each cell line, the activated Stat3 status is indicated as (−), no constitutively-active Stat3 and (+), constitutively-active Stat3 (see FIG. 5A). Data are representative of 3 independent determinations; (FIG. 7B) Human breast cancer cell lines (MDA-MB-453, MDA-MB-468 and MDA-MB-435) were transfected with or without Stat3β or Stat3 antisense (Stat3AS), or were treated with or without Stat3 peptidomimetic inhibitor, ISS 610 (1 mM) or PLATINUM-401 (5 μM)). Forty-eight hours afterwards, cells were harvested and processed for TUNEL analysis; (FIG. 7C) The viral Src-transformed NIH3T3/v-Src fibroblasts were transfected with or without wild-type Stat3 (pRc/CMV Stat3 Flag) and treated with or without 5 μM PLATINUM-401 for 36 h. Cells were subsequently harvested for nuclear extracts preparation and Stat3 DNA-binding assay in vitro with EMSA analysis (left panel), or were processed for TUNEL analysis (right panel).
(§2) Cell proliferation and TUNEL assays—Proliferating cells were first treated with or without PLATINUM-401 for up to 48 h. A portion of cells were harvested for BrdU incorporation following the manufacturer's (BD Biosciences Pharmingen, San Diego, Calif.) instructions and analyzed by flow cytometry. Harvested cells were also analyzed for apoptosis via detection of TdT-mediated dUTP nick-end labeling (TUNEL) assay using Apoptosis Detection Systems Fluorescein according to the manufacturer's (Roche, Indianapolis, Ind.) instructions. Oligonucleotides and plasmids Transfections. The Stat3 antisense (5′-[…]-3′) (SEQ ID NO:3) or control mismatch oligonucleotides (5′-[…]-3′) (SEQ ID NO:4) were synthesized using phosphorothioate chemistry and were synthesized with 2′-Omethoxyethyl modification of the five terminal nucleotides (underlined; (Mora et al., 2002; Karras et al., 2000)) to increase stability. Transfections of Stat3AS and plasmids were carried out with Lipofectamine 2000 (LF) according to the manufacturer's instructions (Invitrogen, Carlsbad, Calif.). Briefly, cells were seeded at 1-2×10^6 cells/10-cm tissue-culture plates 18 h before transfection. Immediately before transfection, cells were washed once with PBS. Cells were transfected with luciferase reporters (4 μg) in the presence or absence of v-Src (4 μg), or were transfected with Stat3β (4 μg) or pRC/CMV Stat3 Flag (4 μg). Stat3AS transfections were carried out LF alone, or with LF/Stat3 antisense oligonucleotides, or LF/Stat3 mismatch oligonucleotides (final concentration of the oligonucleotides was 250 nM). After 2-3 h, the transfection medium was aspirated and cells washed with PBS before fresh medium added containing 10% FBS was added.
(§3) Cells were analyzed for DNA-strand breaks by TUNEL staining. […] The incidence of apoptosis correlated with the prevalence of constitutively-active Stat3 in malignant cells (FIG. 7, lower panel). Moreover, the incidence of apoptosis by PLATINUM-401 in breast cancer cell lines (MDA-MB-468 and MDA-MB-435) harboring constitutively-active Stat3 compares favorably to that induced by other previously investigated Stat3 inhibitory approaches, such as Stat3β (Garcia et al., 2001), Stat3 antisense (Stat3AS) (Mora et al., 2002), peptidomimetic inhibitor of Stat3 (ISS 610) (FIG. 7B) (Turkson et al., 2004c), and contrasts with the absence of apoptosis in breast cancer cell line, MDA-MB-453 that lacks constitutively-active Stat3. […]

DU145 = experiment: TUNEL analysis of apoptosis; conditions: 48 h
Excerpt: as §1, §2, §3

MDA-MB-435 = experiment: TUNEL analysis of apoptosis; conditions: 48 h
Excerpt: as §1, §2, §3

MDA-MB-453 = experiment: TUNEL analysis of apoptosis; conditions: 48 h, no aberrant Stat3 activity
Excerpt: as §1, §2, §3

MDA-MB-468 = experiment: TUNEL analysis of apoptosis; conditions: 48 h
Excerpt: as §1, §2, §3

MDA-MD-231 = experiment: TUNEL analysis of apoptosis; conditions: 48 h
Excerpt: as §1, §2, §3

Panc1 = experiment: TUNEL analysis of apoptosis; conditions: 48 h
Excerpt: as §1, §2, §3

U266 = experiment: TUNEL analysis of apoptosis; conditions: 48 h
Excerpt: as §1, §2, §3

Cyclin D1 = Cyclin D1 detection, in situ and Western blot; conditions: MDA-MB-435, 48 h
Method: FIGS. 8A and 8B. Inhibition of Cyclin D1 and Bcl-xL induction by PLATINUM-401. Viral Src-transformed fibroblasts (NIH3T3/v-Src) and human breast cancer cell line MDA-MB-435 that contain constitutively-activated Stat3 were treated with or without platinum complex for 48 h. Cells were processed for immunohistochemistry, or cell lysates were prepared from cells and subjected to 5% PAGE and Western blot analysis, as indicated in “Materials and Methods.” (FIG. 8A) Detection of Cyclin D1; (FIG. 8B) Detection of Bcl-xL. Positions of Cyclin D1 and Bcl-xL proteins are shown. Beta-actin levels are shown for normalizing for equal total protein. Data are representative of 3 independent determinations.
Western blot—Whole-cell lysates were prepared in boiling sodium dodecyl sulfate (SDS) sample-loading buffer to extract total proteins from the cytoplasm and nucleus. Equivalent amounts of total cellular protein were electrophoresed on an SDS-10% polyacrylamide gel and transferred onto nitrocellulose membranes. Probing of nitrocellulose membranes with primary antibodies and detection of horseradish peroxidase-conjugated secondary antibodies by enhanced chemiluminescence (Amersham, Piscataway, N.J.) were performed as previously described (Garcia et al., 2001; Turkson et al., 2004b; Zhang et al., 2000). […]

**Q.** What does the source list for `CC(O)CN1CCN(CC(C)O)CC1` (stereo not drawn) [PLATINUM-401]?
**A.** TUNEL staining (A549): Significant TUNEL staining; TUNEL staining (DU145): Significant TUNEL staining; TUNEL staining (MDA-MB-435): Significant TUNEL staining; TUNEL staining (MDA-MB-453): no TUNEL staining; TUNEL staining (MDA-MB-468): Significant TUNEL staining; TUNEL staining (MDA-MD-231): Significant TUNEL staining; TUNEL staining (Panc1): Significant TUNEL staining; TUNEL staining (U266): Significant TUNEL staining; Cyclin D1 level (Cyclin D1): significantly diminished
